Counter-ions that a name gives are not always drawn.
Key:
[1] = biological target: T1, human GPR40 (Homo sapiens, UniProt O14842); assay: GPR40 antagonist activity with changes in intracellular calcium concentration as index (NFAT-luciferase reporter, CHO(dhfr-)/GPR40-NFAT-Luc cells); format: cell-based; conditions: CHO cell line expressing human GPR40, NFAT-Luc reporter; GPR40 agonist 3-(4-((6-benzyloxy-2',6'-dimethyl-biphenyl-3-yl)methoxy)phenyl)propanoic acid 40 nM; 4 hr culture; 0.1% fatty acid-free BSA
T1 construct: expressed in transfected cells; host or cells: CHO(dhfr-) cells: line CHO-hGPR40 No. 104 of WO2004/041266, with a stably expressed NFAT-TA-Luc reporter (CHO(dhfr-)/GPR40-NFAT-Luc)
From the text: Evaluation of GPR40 antagonist activity with changes in intracellular calcium concentration as index
An assay system of GPR40 antagonist was established as follows. In this assay system, as the GPR40 agonist, 3-(4-((6-benzyloxy-2′,6′-dimethyl-biphenyl-3-yl)methoxy)phenyl)propanoic acid (compound described in Example 340 of WO2004/041266) was used.
First, NFAT-TA was cut out from pNFAT-TA-Luc (manufactured by BD Bioscience Clontech) with HindIII and NheI, the recovered fragment was inserted into pGL3 basic neo digested with HindIII and NheI to give plasmid:pGL3 basic neo NFAT-TA-Luc.
This plasmid was used for “the CHO cell line (CHO-hGPR40 No. 104), which was made to express human GPR40” described in WO2004/041266, and a cell line CHO(dhfr-)/GPR40-NFAT-Luc, wherein a reporter gene was stably expressed by a method known per se, was prepared.
This cell line was diluted with a medium (nucleic acid-free MEM (Minimum Essential Medium)—α medium added with dialyzed FBS (Fetal Bovine Serum) to a final concentration of 10%) in such a manner that 2×10^4 cells/100 μl would be contained, dispensed to a white walled 96 well plate (manufactured by Coster) by 100 μl per well, and cultured overnight in a CO2 incubator. Then the medium was removed by suction from the 96 well plate, and a 10 mM test compound-dimethyl sulfoxide (manufactured by Wako Pure Chemical Industries, Ltd.) solution diluted with a medium (nucleic acid-free MEM—α medium added with bovine serum albumin (BSA) free of fatty acid to a final concentration of 0.1%) to each concentration was added by 50 μl per well. Further, 3-(4-((6-benzyloxy-2′,6′-dimethyl-biphenyl-3-yl)methoxy)phenyl)propanoic acid diluted with a medium (nucleic acid-free MEM-α (medium added with BSA free of fatty acid to a final concentration of 0.1%) to a final concentration of 40 nM was added to the 96 well plate by 50 μl per well.
After culture in a CO2 incubator for 4 hr, the culture medium was removed from the 96 well plate. Then, PicaGene (manufactured by TOYO INK MFG. CO., LTD.) was added to the 96 well plate, and the luciferase activity was determined using PerkinElmer ARVO (trade name, manufactured by PerkinElmer), based on which changes in the intracellular calcium concentration were evaluated. After assay of luciferase activity, nonlinear regression analysis was performed using PRISM 3 (trade name, manufactured by GraphPad) and IC50 value was calculated with changes in the intracellular calcium concentration as an index.
In the same manner as in Experimental Example 1, the IC50 value of the compound of the present invention was calculated.

T1 sequence (O14842 whole entry): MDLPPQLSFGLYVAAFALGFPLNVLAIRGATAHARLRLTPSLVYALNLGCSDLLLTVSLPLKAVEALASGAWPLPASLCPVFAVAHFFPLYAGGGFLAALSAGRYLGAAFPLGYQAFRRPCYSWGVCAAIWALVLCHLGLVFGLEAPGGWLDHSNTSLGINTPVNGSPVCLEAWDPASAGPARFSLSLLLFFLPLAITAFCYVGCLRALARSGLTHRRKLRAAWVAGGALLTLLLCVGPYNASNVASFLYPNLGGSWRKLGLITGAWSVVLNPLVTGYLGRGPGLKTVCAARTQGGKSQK

SMILES	IC50 [1]	melting point
CCOc1ccc(-n2c(SCc3ccc(C(F)(F)F)cc3)nc3ccc(Cl)cc32)cc1 [Example 33, 6-Chloro-1-(4-ethoxyphenyl)-2-{[4-(trifluoromethyl)benzyl]thio}-1H-benzimidazole]	< 100 nM	103 to 104 °C
CCCCOc1ccc(-n2c(NCc3ccc(Br)cc3)nc3cc(Cl)c(Cl)cc32)cc1 [Example 100, 1-(4-Butoxyphenyl)-5,6-dichloro-N-(4-bromobenzyl)-1H-benzimidazol-2-amine]	< 100 nM	161 to 162 °C
CCOc1ccc(-n2c(NCc3ccc(Cl)cc3)nc3ccc(Cl)cc32)cc1 [Example 47, 6-Chloro-N-(4-chlorobenzyl)-1-(4-ethoxyphenyl)-1H-benzimidazol-2-amine]	< 100 nM	135 to 136 °C
CCCCOc1ccc(-n2c(NCc3ccc(Cl)cc3)nc3ccc(Cl)cc32)cc1 [Example 76, 1-(4-Butoxyphenyl)-6-chloro-N-(4-chlorobenzyl)-1H-benzimidazol-2-amine]	< 100 nM	122 to 123 °C
CCCCOc1ccc(-n2c(SCc3ccc(Cl)cc3)nc3cc(Cl)c(Cl)cc32)cc1 [Example 113, 1-(4-Butoxyphenyl)-5,6-dichloro-2-[(4-chlorobenzyl)thio]-1H-benzimidazole]	< 100 nM	99 to 100 °C
COc1ccc(-n2c(NCc3ccc(C(C)(C)C)cc3)nc3ccc(Cl)cc32)cc1 [Example 72, N-(4-tert-Butylbenzyl)-6-chloro-1-(4-methoxyphenyl)-1H-benzimidazol-2-amine]	< 100 nM	208 to 209 °C
COCOc1ccc(-n2c(SCc3ccc(Cl)cc3)nc3ccc(Cl)cc32)cc1 [Example 7, 6-Chloro-2-[(4-chlorobenzyl)thio]-1-[4-(methoxymethoxy)phenyl]-1H-benzimidazole]	< 100 nM	109 to 110 °C
CCCOc1ccc(-n2c(NCc3ccc(C(C)(C)C)cc3)nc3ccc(Cl)cc32)cc1 [Example 73, N-(4-tert-Butylbenzyl)-6-chloro-1-(4-propoxyphenyl)-1H-benzimidazol-2-amine]	< 100 nM	98 to 100 °C
CCOc1ccc(-n2c(SCc3ccc(C(C)(C)C)cc3)nc3ccc(Cl)cc32)cc1 [Example 38, 2-[(4-tert-butylbenzyl)thio]-6-chloro-1-(4-ethoxyphenyl)-1H-benzimidazole]	< 100 nM	142 to 143 °C
CCCCOc1ccc(-n2c(NCc3ccc(Cl)cc3)nc3cc(Cl)c(Cl)cc32)cc1 [Example 101, 1-(4-Butoxyphenyl)-5,6-dichloro-N-(4-chlorobenzyl)-1H-benzimidazol-2-amine]	< 100 nM	162 to 163 °C
CCCOc1ccc(-n2c(NCc3ccc(Cl)cc3)nc3ccc(Cl)cc32)cc1 [Example 74, 6-Chloro-N-(4-chlorobenzyl)-1-(4-propoxyphenyl)-1H-benzimidazol-2-amine]	< 100 nM	130 to 131 °C
CCOc1ccc(-n2c(SCc3ccc(Cl)cc3)nc3cc(Cl)ccc32)cc1 [Example 65, 5-Chloro-2-[(4-chlorobenzyl)thio]-1-(4-ethoxyphenyl)-1H-benzimidazole hydrochloride]	< 100 nM	–
CC(C)Oc1ccc(-n2c(SCc3ccc(Cl)cc3)nc3cc(Cl)ccc32)cc1 [Example 46, 5-Chloro-2-[(4-chlorobenzyl)thio]-1-(4-isopropoxyphenyl)-1H-benzimidazole]	< 100 nM	–

Now from value to molecule:

IC50 [1]	melting point	SMILES
< 100 nM	190 to 191 °C	CC(C)(C)c1ccc(CNc2nc3cc(Cl)ccc3n2-c2ccc(OCC(F)(F)F)cc2)cc1 [Example 89, N-(4-tert-Butylbenzyl)-5-chloro-1-[4-(2,2,2-trifluoroethoxy)phenyl]-1H-benzimidazol-2-amine]
< 100 nM	186 to 187 °C	CCOc1ccc(-n2c(NCc3ccc(C(C)(C)C)cc3)nc3cc(Cl)c(Cl)cc32)cc1 [Example 93, N-(4-tert-Butylbenzyl)-5,6-dichloro-1-(4-ethoxyphenyl)-1H-benzimidazol-2-amine]
< 100 nM	141 to 142 °C	COc1ccc(-n2c(SCc3ccc(Cl)cc3)nc3cc(Cl)c(Cl)cc32)cc1 [Example 108, 5,6-Dichloro-2-[(4-chlorobenzyl)thio]-1-(4-methoxyphenyl)-1H-benzimidazole]
< 100 nM	90 to 92 °C	FC(F)(F)COc1ccc(-n2c(SCc3ccc(Cl)cc3)nc3cc(Cl)c(Cl)cc32)cc1 [Example 131, 5,6-Dichloro-2-[(4-chlorobenzyl)thio]-1-[4-(2,2,2-trifluoroethoxy)phenyl]-1H-benzimidazole]
< 100 nM	109 to 110 °C	CCOc1ccc(-n2c(NCc3ccc(Cl)cc3)nc3cc(Cl)ccc32)cc1 [Example 82, 5-Chloro-N-(4-chlorobenzyl)-1-(4-ethoxyphenyl)-1H-benzimidazol-2-amine]
< 100 nM	136 to 137 °C	CC(C)(C)c1ccc(CNc2nc3cc(Cl)c(Cl)cc3n2-c2ccc(OCC(F)(F)F)cc2)cc1 [Example 102, N-(4-tert-Butylbenzyl)-5,6-dichloro-1-[4-(2,2,2-trifluoroethoxy)phenyl]-1H-benzimidazol-2-amine]
< 100 nM	139 to 140 °C	FC(F)C(F)(F)Oc1ccc(-n2c(SCc3ccc(Cl)cc3)nc3ccc(Cl)cc32)cc1 [Example 135, 6-Chloro-2-[(4-chlorobenzyl)thio]-1-[4-(1,1,2,2-tetrafluoroethoxy)phenyl]-1H-benzimidazole]
< 100 nM	122 to 123 °C	CCCOc1ccc(-n2c(NCc3ccc(C(C)(C)C)cc3)nc3cc(Cl)c(Cl)cc32)cc1 [Example 96, N-(4-tert-Butylbenzyl)-5,6-dichloro-1-(4-propoxyphenyl)-1H-benzimidazol-2-amine]
< 100 nM	181 to 182 °C	CC(C)(C)c1ccc(CNc2nc3ccc(Cl)cc3n2-c2ccc(OC(F)(F)F)cc2)cc1 [Example 80, N-(4-tert-Butylbenzyl)-6-chloro-1-[4-(trifluoromethoxy)phenyl]-1H-benzimidazol-2-amine]
< 100 nM	106 to 107 °C	CCCOc1ccc(-n2c(NCc3ccc(Br)cc3)nc3cc(Cl)c(Cl)cc32)cc1 [Example 97, N-(4-Bromobenzyl)-5,6-dichloro-1-(4-propoxyphenyl)-1H-benzimidazol-2-amine]
< 100 nM	119 to 120 °C	CCCOc1ccc(-n2c(SCc3ccc(Cl)cc3)nc3cc(Cl)c(Cl)cc32)cc1 [Example 112, 5,6-Dichloro-2-[(4-chlorobenzyl)thio]-1-(4-propoxyphenyl)-1H-benzimidazole]
< 100 nM	141 to 142 °C	CCOc1ccc(-n2c(NCc3ccc(Cl)cc3)nc3cc(Cl)c(Cl)cc32)cc1 [Example 94, 5,6-Dichloro-N-(4-chlorobenzyl)-1-(4-ethoxyphenyl)-1H-benzimidazol-2-amine]
< 100 nM	129 to 130 °C	Clc1ccc(CSc2nc3ccc(Cl)cc3n2-c2ccc(C3OCCO3)cc2)cc1 [Example 132, 6-Chloro-2-[(4-chlorobenzyl)thio]-1-[4-(1,3-dioxolan-2-yl)phenyl]-1H-benzimidazole]
< 100 nM	211 to 212 °C	CCOc1ccc(-n2c(NCc3ccc(C(C)(C)C)cc3)nc3cc(Cl)ccc32)cc1 [Example 81, N-(4-tert-Butylbenzyl)-5-chloro-1-(4-ethoxyphenyl)-1H-benzimidazol-2-amine]
< 100 nM	92 to 93 °C	CCOc1ccc(-n2c(NCc3ccc(Br)cc3)nc3cc(Cl)c(Cl)cc32)cc1 [Example 95, N-(4-Bromobenzyl)-5,6-dichloro-1-(4-ethoxyphenyl)-1H-benzimidazol-2-amine]
< 100 nM	130 to 133 °C	CC(C)(C)c1ccc(CNc2nc3ccc(Cl)cc3n2-c2ccc(OC(F)(F)C(F)F)cc2)cc1.Cl [Example 106, N-(4-tert-Butylbenzyl)-6-chloro-1-[4-(1,1,2,2-tetrafluoroethoxy)phenyl]-1H-benzimidazol-2-amine hydrochloride]

From US20080021069A1, “Receptor Function Regulating Agent” (TAKEDA PHARMACEUTICAL COMPANY LIMITED, priority 2004, published 2008)
